One experiment addresses T1, PDK1 enzyme (Homo sapiens, UniProt O15530).
T1 sequence (O15530 1-556): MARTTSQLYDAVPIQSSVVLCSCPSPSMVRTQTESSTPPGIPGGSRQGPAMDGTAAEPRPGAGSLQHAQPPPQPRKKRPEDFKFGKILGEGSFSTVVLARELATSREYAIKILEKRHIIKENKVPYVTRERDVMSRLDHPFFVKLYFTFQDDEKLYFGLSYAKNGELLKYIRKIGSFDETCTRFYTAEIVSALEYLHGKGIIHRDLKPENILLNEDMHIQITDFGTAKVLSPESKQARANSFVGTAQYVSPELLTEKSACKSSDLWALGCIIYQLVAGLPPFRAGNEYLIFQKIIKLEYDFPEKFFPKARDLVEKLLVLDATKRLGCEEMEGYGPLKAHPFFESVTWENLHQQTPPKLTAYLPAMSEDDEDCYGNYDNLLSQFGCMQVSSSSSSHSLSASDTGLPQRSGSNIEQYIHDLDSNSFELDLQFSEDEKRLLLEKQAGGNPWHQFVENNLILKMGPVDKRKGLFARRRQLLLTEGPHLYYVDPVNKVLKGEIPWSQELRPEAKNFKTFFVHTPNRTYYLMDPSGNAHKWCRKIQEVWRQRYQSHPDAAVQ
Briefly: PDK1 kinase inhibition assay (33P phosphorylation of synthetic peptide, filter plate). Format: biochemical. Particulars: 0.01 mM ATP, 60 min at 30° C.; read-out: PDK1 IC50. In outline: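 PDK1 and inhibitor incubated 60 min at 30° C with 0.01 mM ATP plus 33P-γ-ATP, 0.075 mM peptide, 7.5 mM Mg acetate, 0.1 mg/ml BSA in 0.05 M Tris.HCl pH 7.5. Stopped with phosphoric acid; phosphorylated peptide captured on filter plate and counted by scintillation.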

Experiment [1] can be described thus: Cell growth inhibition assay: cytotoxicity by sulforhodamine B (SRB) assay. Particulars: 96 h. Format: cell-based. The protocol:
B. Cell Growth Inhibition Assay:
• 1) Determine cell number by haemocytometer. • 2) Using an 8 channel multipipettor, add 160 μl of the cell suspension ([…] or 2×10^4 cells/ml) to each well of a 96-well microtitre plate. • 3) Incubate overnight at 37° C. in a CO2 incubator. Day 2 • 4) Stock solutions of drugs are prepared, and serial dilutions of each drug are performed in medium to give final concentrations in wells. • 5) Using a multipipettor, 40 μl of drug (at 5× final concentration) is added to quadruplicate wells. • 6) Control wells are at either side of the 96 well plates, where 40 μl of medium is added. • 7) Incubate plates in CO2 incubator for 4 days Day 6 • 8) Tip off medium into sink and immerse plate slowly into 10% ice cold trichloroacetic acid (TCA). Leave for about 30 mins on ice. • 9) Wash plates three times in tap water by immersing the plates into baths of tap water and tipping it off. • 10) Dry in incubator. • 11) Add 100 μl of 0.4% SRB in 1% acetic acid to each well (except the last row right hand)of the 96 well plate, this is the 0% control, ie no drug, no stain. The first row will be the 100% control with no drug, but with stain). Leave for 5 mins. • 12) Wash off unbound SRB stain with four washes of 1% acetic acid. • 13) Dry plates in incubator. • 14) Solubilise SRB using 100 μl of 10 mM Tris base and put plates on plate shaker for 5 mins. • 15) Determine absorbance at 540 nm using a plate reader. Calculate mean absorbance for quadruplicate wells and express as a percentage of value for control, untreated wells.
Plot % absorbance values versus log drug concentration and determine the IC50.
In general terms: The SRB assay estimates cell density from bound dye.

Experiment [2] has as its target CDK-2 enzyme, complexed with cyclin A (Homo sapiens, UniProt P24941). The experiment is described as follows: CDK2 enzyme inhibition assay (33P phosphorylation of peptide […], filter plate). Format: biochemical. The settings on record: CDK-2/cyclin A, 0.1 mM ATP, 40 min at 30° C. In outline: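 Cyclin A–complexed CDK2 (0.4 U/ml) incubated with inhibitor, 0.03 mM peptide, 0.1 mM ATP plus 33P-γ-ATP in HEPES pH 7.5, 7.5 mM Mg acetate, 0.1 mg/ml BSA, 40 min at 30 °C. Stopped with phosphoric acid; phosphorylated peptide captured on filter plates and counted by scintillation.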

A further experiment concerns the target T2, GST-Chk1 enzyme (Homo sapiens, UniProt O14757).
T2 sequence (O14757 1-476): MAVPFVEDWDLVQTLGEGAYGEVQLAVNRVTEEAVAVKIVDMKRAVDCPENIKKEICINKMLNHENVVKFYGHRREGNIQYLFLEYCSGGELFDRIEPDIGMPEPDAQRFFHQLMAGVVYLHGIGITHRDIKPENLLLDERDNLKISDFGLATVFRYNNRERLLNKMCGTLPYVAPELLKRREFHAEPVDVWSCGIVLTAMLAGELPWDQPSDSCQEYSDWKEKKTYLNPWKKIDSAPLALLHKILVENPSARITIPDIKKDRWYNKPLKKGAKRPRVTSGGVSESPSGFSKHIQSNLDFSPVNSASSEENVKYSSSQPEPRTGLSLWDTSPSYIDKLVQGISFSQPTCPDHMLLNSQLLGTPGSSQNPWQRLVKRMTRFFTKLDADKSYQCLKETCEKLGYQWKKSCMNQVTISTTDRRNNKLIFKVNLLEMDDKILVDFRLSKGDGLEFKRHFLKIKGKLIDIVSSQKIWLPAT
The experiment is described as follows: Chk1 kinase inhibition assay (33P phosphorylation of Chktide, filter plate). Type of experiment: biochemical. Particulars: 0.01 mM ATP, 11 nM GST-Chk1, 40 minutes at 30° C.; read-out: Chk1 IC50. The gist of the method: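 Inhibitor and enzyme reacted 40 min at 30 °C, then stopped with 50 mM phosphoric acid. Phosphorylated peptide captured on filter plates and quantified by scintillation counting.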

[3] abbreviates: SRB assay, 4 days with drug, cell line not named, read-out: GI50.

Like-named read-outs stand apart in the source and are kept apart here.

What is called IC50 is the concentration needed to halve the response being measured. The term GI50 denotes the concentration giving 50% growth inhibition.

As for `CN(C)S(=O)(=O)c1ccc(Nc2cc(O[C@H]3CC[C@H](N)CC3)nc3c(Cl)cnn23)cc1` [Example 168], the IC50 on PDK1 enzyme turned out to be 15200 nM; in experiment [2], 14 nM; at GST-Chk1 enzyme, 5000 nM. Also, the concentration for 50% growth inhibition (GI50) in experiment [1] (setting [3]) was found to be 210 nM.
On the same counts, the results for `CC(C)c1cnn2c(Nc3ccc(S(=O)(=O)N(C)C)cc3)cc(N[C@H]3CCNC3)nc12` [Example 194] are 4420 nM, 73 nM, 210 nM and 590 nM.
For `CN(C)S(=O)(=O)c1ccc(Nc2cc(O[C@H]3CCNC3)nc3c(Cl)cnn23)cc1` [Example 196], the GI50 in experiment [1] (setting [3]) was 1000 nM. The IC50 in experiment [2] is 360 nM; at GST-Chk1 enzyme it was 4190 nM.
On to `CN(C)S(=O)(=O)c1ccc(Nc2cc(N[C@H]3CC[C@H](N)CC3)nc3c(Br)cnn23)cc1Cl` [Example 180], for which the IC50 on PDK1 enzyme came to 2000 nM; in experiment [2], 2 nM; on GST-Chk1 enzyme, 830 nM. In experiment [1], this molecule had a GI50 of 330 nM.
With `CCN[C@H]1CC[C@H](Nc2cc(Nc3ccc(S(=O)(=O)N(C)C)cc3)n3ncc(C(C)C)c3n2)CC1` [Example 147], the IC50 at PDK1 enzyme is 10000 nM; in experiment [2], 98 nM; on GST-Chk1 enzyme, 4000 nM. In experiment [1], this molecule gave a GI50 of 1000 nM.
In the case of `N[C@H]1CC[C@H](Nc2cc(Nc3ccc(Oc4cncc(Cl)c4)cc3)n3ncc(Cl)c3n2)CC1` [Example 191], the GI50 in experiment [1] (setting [3]) is 40 nM. Further, the midpoint of inhibition in experiment [2], the IC50, lay at 18 nM.
With `CSc1cnn2c(Nc3ccc(Oc4cncc(Cl)c4)cc3)cc(N[C@H]3CC[C@H](N)CC3)nc12` [Example 198], the IC50 was found to be 4480 nM at PDK1 enzyme, 18 nM in experiment [2] and 2080 nM at GST-Chk1 enzyme. Moreover, the GI50 in experiment [1] (setting [3]) is 310 nM.
Consider `CSc1cnn2c(Nc3ccc(S(=O)(=O)N(C)C)cc3)cc(N[C@H]3CC[C@H](N)CC3)nc12` [Example 197], for which, in experiment [1] (setting [3]), the GI50 came to 580 nM. The same molecule came in with an IC50 in experiment [2] of 55 nM.
`CC(C)c1cnn2c(Nc3ccc(S(=O)(=O)N(C)C)cc3)cc(O[C@H]3CC[C@H](N)CC3)nc12` [Example 114]: the values for the IC50 (at PDK1 enzyme; in experiment [2]; on GST-Chk1 enzyme) were 125000 nM, 17 nM and 3450 nM, respectively.
On the same counts, the results for `CC(C)c1cnn2c(Nc3ccc(S(=O)(=O)N(C)C)cc3)cc(C(=O)NCCN3CCOCC3)nc12` [Example 121] are greater than 200000 nM, 9300 nM and greater than 200000 nM.
Take `CN(C)S(=O)(=O)c1cccc(Nc2cc(Cl)nc3c(Br)cnn23)c1` [Example 93]: the IC50 on PDK1 enzyme is greater than 200000 nM; in experiment [2] it was 572 nM; on GST-Chk1 enzyme, greater than 200000 nM.
Consider `CC(C)c1cnn2c(Nc3ccc(S(=O)(=O)N(C)C)cc3)cc(NC3CCCCC3)nc12` [Example 63], for which the half-inhibitory concentration (IC50) at PDK1 enzyme was greater than 200000 nM; in experiment [2], 355 nM; on GST-Chk1 enzyme it was greater than 200000 nM.
For `CC(C)c1cnn2c(Nc3ccc(S(=O)(=O)N(C)C)cc3)cc(N3CCCC3CO)nc12` (stereo not drawn) [Example 104], the IC50 at PDK1 enzyme is greater than 200000 nM; in experiment [2], 177 nM; on GST-Chk1 enzyme, greater than 200000 nM.
`COc1cc(Nc2ccc(S(=O)(=O)N(C)C)cc2)n2ncc(C(C)C)c2n1` [Example 66]: the half-inhibitory concentration (IC50) at PDK1 enzyme is greater than 200000 nM; in experiment [2], 876 nM; at GST-Chk1 enzyme, greater than 200000 nM.
With `CCc1cnn2c(Nc3ccc(S(C)(=O)=O)cc3)ccnc12` [Example 47], the 50% inhibitory concentration (IC50) is greater than 200000 nM at PDK1 enzyme, 727 nM in experiment [2] and greater than 200000 nM on GST-Chk1 enzyme.
In the case of `CC(C)c1cnn2c(Nc3ccc(S(=O)(=O)N(C)C)cc3)cc(OC3CCCN(C)C3)nc12` (stereo not drawn) [Example 75], the IC50 on PDK1 enzyme was greater than 200000 nM; in experiment [2], 266 nM; at GST-Chk1 enzyme it was 6280 nM.
On the same counts, the results for `CC(C)c1cnn2c(Nc3ccc(S(=O)(=O)N(C)C)cc3)cc(N3CCCC(CN(C)C)C3)nc12` (stereo not drawn) [Example 89] are greater than 200000 nM, 8270 nM and greater than 200000 nM.
With `NS(=O)(=O)c1ccc(Nc2ccnc3ccnn23)cc1` [Example 20], the IC50 on PDK1 enzyme was greater than 200000 nM; in experiment [2], 1760 nM; on GST-Chk1 enzyme, greater than 200000 nM.
Turning to `CC(C)c1cnn2c(Nc3ccc(S(=O)(=O)N(C)C)cc3)cc(C(=O)N3CCC(O)CC3)nc12` [Example 120], the IC50 on PDK1 enzyme was greater than 200000 nM; in experiment [2], 594 nM; at GST-Chk1 enzyme, greater than 200000 nM.
For the molecule `CC(C)c1cnn2c(Nc3ccc(S(=O)(=O)N(C)CCO)cc3)cc(N3CCCC(CO)C3)nc12` (stereo not drawn) [Example 55], the IC50 is greater than 200000 nM at PDK1 enzyme, 270 nM in experiment [2] and greater than 200000 nM at GST-Chk1 enzyme.
As to `CC(C)c1cnn2c(Nc3ccc(S(=O)(=O)NCCO)cc3)cc(Cl)nc12` [Example 37], the IC50 at PDK1 enzyme was greater than 200000 nM; in experiment [2] it was 1510 nM; on GST-Chk1 enzyme, greater than 200000 nM.
As for `CC(C)c1cnn2c(Nc3ccc(S(=O)(=O)N(C)C)cc3)cc(N[C@H]3CC[C@H](N(C)C)CC3)nc12` [Example 162], the IC50 at PDK1 enzyme is 5000 nM; in experiment [2], 815 nM; on GST-Chk1 enzyme it was 12000 nM.
For `CC(C)c1cnn2c(Nc3ccc(S(=O)(=O)N(C)C)cc3)cc(NCC3CCNCC3)nc12` [Example 80] the same measures were 2560 nM, 682 nM and greater than 200000 nM.
For `CC(C)c1cnn2c(Nc3ccc(S(C)(=O)=O)nc3)cc(Cl)nc12` [Example 84] the same measures were greater than 200000 nM, 298 nM and greater than 200000 nM.
On the same counts, the results for `CC(C)COc1cc(Nc2ccc(S(=O)(=O)N(C)CCO)cc2)n2ncc(C(C)C)c2n1` [Example 42] are greater than 200000 nM, 170 nM and greater than 200000 nM.
Take `CC(C)c1cnn2c(Nc3ccc(S(=O)(=O)N(C)C)cc3)cc(N3CCC(C(=O)O)CC3)nc12` [Example 78]: the IC50 at PDK1 enzyme was greater than 200000 nM; in experiment [2], 4790 nM; on GST-Chk1 enzyme, greater than 200000 nM.
On to `CCNc1cc(Nc2ccc(S(C)(=O)=O)cc2)n2ncc(C(C)C)c2n1` [Example 56], for which the IC50 is 45300 nM at PDK1 enzyme, 850 nM in experiment [2] and greater than 200000 nM at GST-Chk1 enzyme.
For `CC(C)c1cnn2c(Nc3ccc(S(=O)(=O)N(C)CCO)cc3)cc(OCCN(C)C)nc12` [Example 39] the same measures were greater than 200000 nM, 403 nM and 80800 nM.

Values taken from US20070179161A1, “Pyrazolopyrimidine compounds and their use in medicine” (VERNALIS (CAMBRIDGE) LIMITED., priority 2003, published 2007).
